The source of these data is patent publication US9708370B2, “Azapeptides as CD36 binding compounds” (VALORISATION-RECHERCHE, LIMITED PARTNERSHIP, priority 2007, dated 2017).

Starred links: 1 amine or outer side, 2 acyl side, 3 side chain; linkers in the order of their positions; H or OH if unused. Non-standard residues stand in square brackets, D forms with d. Residues, ends and D or L forms follow the SMILES beside them. *: point of attachment. X4 = O=C(N(Cc1ccc(-c2ccccc2)cc1)N[*:1])[*:2]; azaTyr = O=C(N(Cc1ccc(O)cc1)N[*:1])[*:2]; X3 = O=C(N(Cc1cccc2ccccc12)N[*:1])[*:2]; azaPhe = O=C(N(Cc1ccccc1)N[*:1])[*:2]; azaLeu = CC(C)CN(N[*:1])C(=O)[*:2]; azaPro = O=C(N1CCCN1[*:1])[*:2]; AzaAla = CN(N[*:1])C(=O)[*:2]; X5 = O=C(CC1CNc2ccccc21)*; azaGly = NNC(=O)O A value given as a limit tells only on which side of the number the result lay.

Chain of human GHS-R1a (Q92847 whole entry): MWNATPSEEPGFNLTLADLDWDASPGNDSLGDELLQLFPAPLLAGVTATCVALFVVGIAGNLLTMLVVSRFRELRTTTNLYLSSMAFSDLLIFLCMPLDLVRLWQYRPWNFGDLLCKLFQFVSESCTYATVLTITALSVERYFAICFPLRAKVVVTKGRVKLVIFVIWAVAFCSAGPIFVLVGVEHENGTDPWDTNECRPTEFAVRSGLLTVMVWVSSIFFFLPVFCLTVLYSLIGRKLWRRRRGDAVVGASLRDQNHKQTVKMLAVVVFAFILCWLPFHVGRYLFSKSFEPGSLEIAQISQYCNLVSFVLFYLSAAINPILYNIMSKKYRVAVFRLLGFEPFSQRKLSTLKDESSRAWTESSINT

One test concerns the target human GHS-R1a (Homo sapiens (Human), UniProt Q92847). The experiment in a line: GHS-R1a binding assay, competition with 125I-ghrelin on membranes of LLC-PK1 cells expressing human GHS-R1a. The conditions noted are these: Table 4; LLCPK-1 membranes overexpressing GHS-R1a; radioiodinated (1-28) rat ghrelin as tracer; read-out: EC50 (text: IC50 values from competition curves in GHS-R1a radioreceptor assay). The protocol:
Rat ghrelin was radio iodinated with Na^125I using the lodo-Beads iodination reagent (Pierce #28665). Briefly, an lodo-bead was incubated with 2 mCi of Na^125I (Amersham) in 100 μL of 50 mM sodium phosphate buffer, pH 7.0 for 5 min at 22° C. The reaction was started by adding 20 nmol of the peptide (1 mM in 0.1 M acetic acid). The tube was incubated for 10 min at 22° C. The iodination was terminated by adding 1 mL of 0.1% TFA. The mono-iodinated peptide was purified by reverse-phase HPLC using a Vydac C18 ([…]) column (30 cm×0.39 cm) in combination with a binary elution system of (A) 0.1% TFA in H2O and (B) 0.1% TFA, 10% H2O, 90% acetonitrile. Fractions of 0.5 mL were collected and analyzed by its radioactive content.
Cells (1.4×10^6) were plated in 100 mm plates and transfected 24 h later with pCDNA3.1-hGHS-R1a (UMR cDNA Resource Center #GHSR0A0000) following the CaHPO4 precipitation method. Briefly, 40 μg of plasmid DNA was diluted in 500 μL of sterile H2O and added to an equal volume of a 4× CaCl2, pH 7.9 solution (2 mM Tris-HCl, 0.2 mM EDTA, 500 mM CaCl2). The mixture was then added slowly with air bubbles to 1 mL of 2× Hepes-buffered saline, pH 7.1 (50 mM Hepes, 280 mM NaCl, 1.5 mM Na2HPO4). After 30 min at room temperature, 1 mL was distributed evenly over the cells and let overnight. The medium was changed the next morning and the membrane preparation was made two days later.
Cells were washed twice with PBS and once with ice-cold homogenization buffer (50 mM Tris-HCl, pH 7.3, 5 mM MgCl2, 2.5 mM EDTA, 30 μg/ml bacitracin). Cells were scraped and harvested in 1.5 mL tubes. Cells were then lysed by temperature shock with two freeze/thaw cycles in liquid nitrogen. The tubes were centrifuged at 14000 g for 20 min. Pellets were resuspended in homogenization buffer and stored at −80° C. until used. Total protein concentrations were determined with the BCA protein assay kit (Pierce).
Competition experiments were performed by incubating 50 μg of LLC-PK1 membranes expressing human GHS-R1a with 15 fmol of ^125I-Ghrelin and increasing concentrations of unlabeled ghrelin or with increasing concentrations of azapeptides derivatives in 0.5 mL of binding buffer. Bound radiolabelled ligand was separated from free by filtration on Whatman GF/C filters pretreated with a 1% polyethylenimine solution. Filters were washed with 2×3 mL of washing buffer (50 mM Tris-HCl, pH 7.3, 10 mM MgCl2, 2.5 mM EDTA, 0.015% Triton X-100). Filters were counted in a LKB gamma counter. Curves were analyzed using Prism software (GraphPad Software Inc).
In general, IC50 refers to the midpoint of a concentration-inhibition curve. `C[C@H](NC(=O)[C@@H](Cc1c[nH]c2ccccc12)NC(=O)[C@@H](N)Cc1cnc[nH]1)C(=O)NN(Cc1ccc(-c2ccccc2)cc1)C(=O)N[C@H](Cc1ccccc1)C(=O)N[C@@H](CCCCN)C(N)=O` [DBG253-3, His-D-Trp-Ala-azaBip-D-Phe-Lys-NH2] (H-H[dW]A[X4][dF]K-NH2): the IC50 worked out at 1.34 µM.

For `C[C@H](NC(=O)[C@@H](Cc1c[nH]c2ccccc12)NC(=O)[C@@H](N)Cc1cnc[nH]1)C(=O)NN(Cc1cccc2ccccc12)C(=O)N[C@H](Cc1ccccc1)C(=O)N[C@@H](CCCCN)C(N)=O` [DBG253-6, His-D-Trp-Ala-azaNal-1-D-Phe-Lys-NH2] (H-H[dW]A[X3][dF]K-NH2), the IC50 stood at 0.723 µM.

As to `CN(NC(=O)[C@@H](Cc1c[nH]c2ccccc12)NC(=O)[C@@H](N)Cc1cnc[nH]1)C(=O)N[C@@H](Cc1c[nH]c2ccccc12)C(=O)N[C@H](Cc1ccccc1)C(=O)N[C@@H](CCCCN)C(N)=O` [DBG145, His-D-Trp-azaAla-Trp-D-Phe-Lys-NH2] (H-H[dW][AzaAla]W[dF]K-NH2), the IC50 was determined as 0.809 µM.

In the case of `CN(NC(=O)[C@@H](Cc1c[nH]c2ccccc12)NC(=O)CC1CNc2ccccc21)C(=O)N[C@@H](Cc1c[nH]c2ccccc12)C(=O)N[C@H](Cc1ccccc1)C(=O)N[C@@H](CCCCN)C(N)=O` (stereo partly drawn) [DBG168-8, In—CO-D-Trp-azaAla-Trp-D-Phe-Lys-NH2] (X5-[dW][AzaAla]W[dF]K-NH2), the IC50 came out at 0.514 µM.

Still in this test, the particulars now being: Table 5; read-out: IC50 Binding GHS-R1a.
Consider `NCCCC[C@H](NC(=O)[C@@H](Cc1ccccc1)NC(=O)C1CCCN1C(=O)NNC(=O)[C@@H](Cc1c[nH]c2ccccc12)NC(=O)[C@@H](N)Cc1cnc[nH]1)C(N)=O` (stereo partly drawn) [CP-AzaGly-Pro, His-D-Trp-azaGly-Pro-D-Phe-Lys-NH2], for which the IC50 is above 10 µM.

In the case of `C[C@H](NC(=O)[C@H](C)NC(=O)N(Cc1ccc(O)cc1)NC(=O)[C@@H](N)Cc1cnc[nH]1)C(=O)N[C@H](Cc1ccccc1)C(=O)N[C@@H](CCCCN)C(N)=O` [CP-1B(iii), (D/L)His-azaTyr-Ala-Ala-D-Phe-Lys-NH2] (H-H[azaTyr]AA[dF]K-NH2), the IC50 was above 10 µM.

For `C[C@@H](NC(=O)[C@@H](N)Cc1cnc[nH]1)C(=O)NNC(=O)N[C@@H](Cc1c[nH]c2ccccc12)C(=O)N[C@H](Cc1ccccc1)C(=O)N[C@@H](CCCCN)C(N)=O` [CP-2A(iv), His-D-Ala-azaGly-Trp-D-Phe-Lys-NH2] (H-H[dA][azaGly]W[dF]K-NH2), the IC50 is above 10 µM.

Take `C[C@H](NC(=O)[C@@H](Cc1c[nH]c2ccccc12)NC(=O)[C@@H](N)Cc1cnc[nH]1)C(=O)NN(Cc1ccccc1)C(=O)N[C@H](C)C(=O)N[C@@H](CCCCN)C(N)=O` [CP-3(ii), His-D-Trp-Ala-azaPhe-D-Ala-Lys-NH2] (H-H[dW]A[azaPhe][dA]K-NH2): the IC50 is above 10 µM.

As for `NCCCC[C@H](NC(=O)[C@@H](Cc1ccccc1)NC(=O)[C@H](Cc1c[nH]c2ccccc12)NC(=O)N1CCCN1C(=O)[C@@H](Cc1c[nH]c2ccccc12)NC(=O)[C@@H](N)Cc1cnc[nH]1)C(N)=O` [CP-AP_4, His-D-Trp-azaPro-Trp-D-Phe-Lys-NH2] (H-H[dW][azaPro]W[dF]K-NH2), the IC50 was above 10 µM.

With `C[C@H](NC(=O)[C@@H](C)NC(=O)[C@@H](N)Cc1cnc[nH]1)C(=O)NN(Cc1ccccc1)C(=O)N[C@H](Cc1ccccc1)C(=O)N[C@@H](CCCCN)C(N)=O` [CP-3 (iii), His-D-Ala-Ala-azaPhe-D-Phe-Lys-NH2] (H-H[dA]A[azaPhe][dF]K-NH2), the IC50 was above 10 µM.

Take `C[C@H](NC(=O)N(Cc1ccccc1)NC(=O)[C@@H](N)Cc1cnc[nH]1)C(=O)N[C@@H](Cc1c[nH]c2ccccc12)C(=O)N[C@H](C)C(=O)N[C@@H](CCCCN)C(N)=O` [CP-1A(ii), His-azaPhe-Ala-Trp-D-Ala-Lys-NH2] (H-H[azaPhe]AW[dA]K-NH2): the IC50 was above 10 µM.

In the case of `C[C@H](NC(=O)[C@@H](Cc1ccccc1)NC(=O)N(Cc1ccccc1)NC(=O)[C@H](C)NC(=O)[C@@H](Cc1c[nH]c2ccccc12)NC(=O)[C@@H](N)Cc1cnc[nH]1)C(N)=O` [CP-3(i), His-D-Trp-Ala-AzaPhe-D-Phe-Ala-NH2] (H-H[dW]A[azaPhe][dF]A-NH2), the IC50 was above 10 µM.

In the case of `C[C@H](NC(=O)[C@@H](Cc1ccccc1)NC(=O)[C@H](Cc1c[nH]c2ccccc12)NC(=O)NNC(=O)[C@@H](Cc1c[nH]c2ccccc12)NC(=O)[C@@H](N)Cc1cnc[nH]1)C(N)=O` [CP-2A(i), His-D-Trp-azaGly-Trp-D-Phe-Ala-NH2] (H-H[dW][azaGly]W[dF]A-NH2), the IC50 was found to be 45 µM.

Take `CC(C)CN(NC(=O)[C@@H](C)NC(=O)[C@@H](N)Cc1cnc[nH]1)C(=O)N[C@@H](Cc1c[nH]c2ccccc12)C(=O)N[C@H](Cc1ccccc1)C(=O)N[C@@H](CCCCN)C(N)=O` [CP-2B (iv), His-D-Ala-azaLeu-Trp-D-Phe-Lys-NH2] (H-H[dA][azaLeu]W[dF]K-NH2): the IC50 is above 10 µM.

Turning to `C[C@H](NC(=O)NNC(=O)[C@@H](Cc1c[nH]c2ccccc12)NC(=O)[C@@H](N)Cc1cnc[nH]1)C(=O)N[C@H](Cc1ccccc1)C(=O)N[C@@H](CCCCN)C(N)=O` [CP-2A(iii), His-D-Trp-azaGly-Ala-D-Phe-Lys-NH2] (H-H[dW][azaGly]A[dF]K-NH2), the IC50 was above 10 µM.

Turning to `C[C@@H](NC(=O)[C@H](Cc1c[nH]c2ccccc12)NC(=O)NNC(=O)[C@@H](Cc1c[nH]c2ccccc12)NC(=O)[C@@H](N)Cc1cnc[nH]1)C(=O)N[C@@H](CCCCN)C(N)=O` [CP-2A(ii), His-D-Trp-azaGly-Trp-D-Ala-Lys-NH2] (H-H[dW][azaGly]W[dA]K-NH2), the IC50 was above 10 µM.

As to `C[C@H](N)C(=O)N[C@H](Cc1c[nH]c2ccccc12)C(=O)N[C@@H](C)C(=O)NN(Cc1ccccc1)C(=O)N[C@H](Cc1ccccc1)C(=O)N[C@@H](CCCCN)C(N)=O` [CP-3 (iv), Ala-D-Trp-Ala-AzaPhe-D-Phe-Lys-NH2] (H-A[dW]A[azaPhe][dF]K-NH2), the IC50 is above 10 µM.
